Earlier results on five compounds are cited in patent US20110275591A1, “COCKTAIL FOR MODULATION OF ALZHEIMER'S DISEASE” (Concourse Health Sciences LLC, priority 2004, published 2011).

The subject of data set [1] is primary neurons of rat cerebral cortex. The conditions noted are these: MTT and propidium iodide assays.
Another data set concerns SAMP8 mouse. Particulars: for cognition in T-maze footshock avoidance paradigm and lever press appetitive task: chronic administration.
Data set [2] has as its system children with autistic spectrum disorders. The conditions noted are these: 8-week study; all p<0.05.
Data set [3] deals with patients with probable AD. Particulars: after 3 and 6 months of treatment; significant differences only for a subset of cognitive tasks.
In data set [4] the test system is Alzheimer transgenic mice. Particulars: dietary curcumin.
The test system of data set [5] is cultured hippocampal neurons.
Setting [6] is: co-treatment during 48-hour Aβ exposure, vs controls with no EGCG.

Regarding `O=C(O)CCCCC1CCSS1` (stereo not drawn) [ALA, Alpha lipoic acid], in data set [1] (Aβ peptide 30 microM), the “protection against cytotoxicity induced by Aβ peptide” value is on record as “protected cortical neurons against cytotoxicity”. Moreover, the “protection against cytotoxicity induced by H2O2” value in data set [1] (H2O2 100 microM) was “protected cortical neurons against cytotoxicity”. In the data set with SAMP8 mouse (12-month-old SAMP8 mice), the “indexes of oxidative stress (protein carbonyls, TBARS, W/S ratio of MAL-6)” value is on record as “reversed all three indexes of oxidative stress”; the “cognition in T-maze footshock avoidance paradigm and lever press appetitive task” value was “improved cognition”.

On to `NCCC(=O)N[C@@H](Cc1cnc[nH]1)C(=O)O` [L-carnosine, b-alanyl-L-histidine], for which the “Gilliam Autism Rating Scale and Receptive One-Word Picture Vocabulary test” value in data set [2] was “statistically significant improvements”.

Consider `CC(=O)N[C@@H](CS)C(=O)O` [NAC, N-Acetylcysteine, reference compound], for which the “efficacy outcome measures (cognitive tasks)” value in data set [3] is given as “beneficial results on nearly every outcome measure”. In the data set on SAMP8 mouse (12-month-old SAMP8 mice), the “cognition in T-maze footshock avoidance paradigm and lever press appetitive task” value is “improved cognition”. Moreover, in the data set on SAMP8 mouse (SAMP8 mice), the blood-brain barrier passage result is “crossed the blood-brain barrier and accumulated in the brain”.

Regarding `COc1cc(/C=C/C(=O)CC(=O)/C=C/c2ccc(O)c(OC)c2)ccc1O` [curcumin, Curcumin], in data set [4], the “levels of interleukin-1 beta” value was “decreased levels”, the “levels of oxidized proteins” value is “decreased levels” and the microgliosis result is recorded as “suppression”. Further, the “lipid peroxidation products (indicators of oxidative stress)” value with diabetic rats (curcumin fed rats) was “significant reduction”. Moreover, the “accumulation of advanced glycation endproducts” value in the data set with diabetic rats (dietary curcumin 200 mg/kg body weight, vs control diabetic rats without curcumin) is reported as “prevents the accumulation”.

Epigallocatechin-3-gallate [EGCG]: in data set [5] (Aβ-exposed neurons, vs controls), the cell survival result is on record as “increased survival”. In data set [5] (setting [6]), the “levels of caspase C” value is recorded as “decreased” and the levels of malondiadehyde entry was “decreased”.
